Assay [1] deals with Lactobacillus casei and Lactococcus lactis subsp. lactis, as bacteria. The assay can be described thus: Increase in cell number of bacteria depending on saccharides. The class given is cell-based. As to conditions: bacteria in modified MRS medium, FIGS. 1 and 2. The text has this: (§1) Specifically, each of the microorganisms (bacteria, fungi, and yeasts) obtained from Korean Culture Center of Microorganisms (KCCM) was subcultured three or four times in a culture medium (Table 1) by a typical method to enhance activity. Then, the cultured microorganism was inoculated into a culture medium (Table 1), followed by inducing over-cultivation to a concentration of 10^5 CFU/mL or more, thereby obtaining a strain mother liquor (Table 1).
(§2) In order to compare degrees of inhibition of the growth of microorganisms depending upon the kind of purely added saccharides without a bias due to alcohol and other additives contained in a fermented alcoholic beverage, only the kind of saccharides added to a culture medium for each of the microorganisms was varied and investigated.
(§3) Specifically, as saccharides of a culture medium suited to each strain, water-containing crystalline glucose (purity 98 wt % or more, CJ Cheiljedang), sucrose (purity 98 wt % or more, CJ Cheiljedang), and crystalline allulose (purity: 98 wt % or more, CJ Cheiljedang) were added to each of the culture medium, thereby preparing a modified culture medium (Tables 2 to 4). […]
(§4) Thereafter, the measured number of cell colonies was multiplied by a dilution factor, thereby calculating a value of colony forming unit (CFU) per mL of sample.

Assay [2] relates to Saccharomyces cerevisiae and Saccharomyces pastorianus, as yeasts. The assay can be described thus: Increase in cell number of yeasts depending on saccharides. In kind it is cell-based. As to conditions: yeasts in modified YMB medium, FIGS. 8 and 9.
Description: as §1, §2, §3, §4

For `O=C(CO)C(O)C(O)C(O)CO` (centres unmarked) [allulose], the “strain growth (in words)” value in assay [1] and in assay [2] was “substantially no strain growth was observed” each time.

The values above are taken from US11708549B2, “Bacterial, fungal, and yeast growth inhibitor containing allulose” (CJ CHEILJEDANG CORPORATION, priority 2016, dated 2023).
